The source of these data is ChEMBL document CHEMBL2311515, “Synthesis and evaluation of antibacterial activity of 7-alkyloxy-4,5-dihydro-imidazo[1,2-a]quinoline derivatives” (2013).

≈ marks a conversion by molar mass, not a printed value.

What all share (format): functional
The test system of one experiment is Staphylococcus aureus. The experiment is described as follows: Antibacterial activity against Staphylococcus aureus ATCC 29213 assessed as growth inhibition after 20 hrs by NCCLS broth microdilution method. Conditions: ATCC 29213, 20 h. In general terms: Broth dilution looks for growth in wells or tubes with falling amounts of substance.
Another experiment deals with Escherichia coli. The experiment is described as follows: Antibacterial activity against Escherichia coli ATCC 8739 assessed as growth inhibition after 20 hrs by NCCLS broth microdilution method. Conditions: ATCC 8739, 20 h.
A further experiment concerns Pseudomonas aeruginosa. As to the kind of experiment: Antibacterial activity against Pseudomonas aeruginosa ATCC 27853 assessed as growth inhibition after 20 hrs by NCCLS broth microdilution method. Conditions: ATCC 27853, 20 h.
Another experiment concerns Klebsiella pneumoniae. As to the kind of experiment: Antibacterial activity against Klebsiella pneumoniae ATCC 10031 assessed as growth inhibition after 20 hrs by NCCLS broth microdilution method. To be noted: ATCC 10031, 20 h.
Experiment [1] has as its system Proteus vulgaris. The experiment is described as follows: Antibacterial activity against Proteus vulgaris ATCC 35659 assessed as growth inhibition after 20 hrs by NCCLS broth microdilution method. Conditions: ATCC 35659, 20 h.
For another experiment, the system named is Salmonella. The experiment is described as follows: Antibacterial activity against Salmonella ATCC 14028 assessed as growth inhibition after 20 hrs by NCCLS broth microdilution method. Conditions: ATCC 14028, 20 h.
The next experiment concerns Pasteurella sp. The experiment is described as follows: Antibacterial activity against Pasteurella ATCC 6529 assessed as growth inhibition after 20 hrs by NCCLS broth microdilution method. To be noted: ATCC 6529, 20 h.
The test system of experiment [2] is Proteus vulgaris. As to the kind of experiment: Ratio of ciprofloxacin MIC to compound MIC for Proteus vulgaris ATCC 35659.
In experiment [3] the test system is Proteus vulgaris. As to the kind of experiment: Ratio of amoxicillin MIC to compound MIC for Proteus vulgaris ATCC 35659.

As a reminder, the MIC is the smallest concentration in the dilution series that meets the test's criterion for growth inhibition.

Regarding `CCCCCCOc1ccc2c(c1)CCc1nccn1-2`, the MIC with Staphylococcus aureus is 75 µg/mL (≈ 277 µM); in the experiment on Escherichia coli, 16 µg/mL (≈ 59.2 µM).
`Fc1ccc(COc2ccc3c(c2)CCc2nccn2-3)cc1`: the MIC in the experiment with Staphylococcus aureus and in the experiment on Escherichia coli was 50 µg/mL (≈ 170 µM) throughout.
For the compound `COc1ccc(COc2ccc3c(c2)CCc2nccn2-3)cc1`, the MIC in the experiment on Staphylococcus aureus turned out to be 100 µg/mL (≈ 326 µM); with Escherichia coli, 50 µg/mL (≈ 163 µM).
The like results for `c1ccc(COc2ccc3c(c2)CCc2nccn2-3)cc1` were, in that order, 200 µg/mL (≈ 724 µM) and 50 µg/mL (≈ 181 µM).
The like results for `Clc1cccc(COc2ccc3c(c2)CCc2nccn2-3)c1` were, in that order, 150 µg/mL (≈ 483 µM) and 50 µg/mL (≈ 161 µM).
With `CCCCCCCCOc1ccc2c(c1)CCc1nccn1-2`, the MIC in the experiment on Staphylococcus aureus came out at 50 µg/mL (≈ 168 µM); in the experiment with Escherichia coli, 25 µg/mL (≈ 83.8 µM).
Regarding `CCCCOc1ccc2c(c1)CCc1nccn1-2`, the results for the MIC in the experiment with Staphylococcus aureus and in the experiment on Escherichia coli were 150 µg/mL (≈ 619 µM) and 50 µg/mL (≈ 206 µM), respectively.
The like results for `Brc1ccccc1COc1ccc2c(c1)CCc1nccn1-2` were, in that order, 100 µg/mL (≈ 282 µM) and 50 µg/mL (≈ 141 µM).
The like results for `Brc1ccc(COc2ccc3c(c2)CCc2nccn2-3)cc1` were, in that order, 50 µg/mL (≈ 141 µM) and 25 µg/mL (≈ 70.4 µM).
As for `CC1(C)S[C@@H]2[C@H](NC(=O)[C@H](N)c3ccc(O)cc3)C(=O)N2[C@H]1C(=O)O` [AMOXICILLIN], the MIC in the experiment on Pseudomonas aeruginosa was 16 µg/mL (≈ 43.8 µM); in the experiment on Klebsiella pneumoniae, above 128 µg/mL; in the experiment with Proteus vulgaris [1], above 128 µg/mL; in the experiment on Salmonella, above 128 µg/mL; in the experiment with Staphylococcus aureus, 25 µg/mL (≈ 68.4 µM); in the experiment on Pasteurella sp. it was 16 µg/mL (≈ 43.8 µM). Also, the MIC in the experiment with Escherichia coli was 150 µg/mL (≈ 410 µM).
For the compound `Brc1cccc(COc2ccc3c(c2)CCc2nccn2-3)c1`, the results for the minimal inhibitory concentration (MIC) with Staphylococcus aureus and in the experiment on Escherichia coli were 100 µg/mL (≈ 282 µM) and 50 µg/mL (≈ 141 µM), respectively.
The like results for `Cc1ccc(COc2ccc3c(c2)CCc2nccn2-3)cc1` were, in that order, 50 µg/mL (≈ 172 µM) and 25 µg/mL (≈ 86.1 µM).
For `CCCCCCCCCCOc1ccc2c(c1)CCc1nccn1-2`, the results for the MIC in the experiment with Staphylococcus aureus and in the experiment on Escherichia coli were 100 µg/mL (≈ 306 µM) and 50 µg/mL (≈ 153 µM), respectively.
Turning to `CCCOc1ccc2c(c1)CCc1nccn1-2`, the minimal inhibitory concentration (MIC) is 150 µg/mL (≈ 657 µM) with Staphylococcus aureus and 50 µg/mL (≈ 219 µM) in the experiment with Escherichia coli.
With `O=C(O)c1cn(C2CC2)c2cc(N3CCNCC3)c(F)cc2c1=O` [CIPROFLOXACIN], the MIC in the experiment with Pseudomonas aeruginosa was 4 µg/mL (≈ 12.1 µM); in the experiment on Klebsiella pneumoniae, 4 µg/mL (≈ 12.1 µM); in the experiment with Proteus vulgaris [1] it was 128 µg/mL (≈ 386 µM); in the experiment with Salmonella, above 128 µg/mL; with Pasteurella sp., 128 µg/mL (≈ 386 µM).
For the compound `CCCCCOc1ccc2c(c1)CCc1nccn1-2`, the MIC in the experiment on Staphylococcus aureus amounted to 100 µg/mL (≈ 390 µM); in the experiment with Escherichia coli, 50 µg/mL (≈ 195 µM).
`CCCCCCCOc1ccc2c(c1)CCc1nccn1-2`: the Ratio in the experiment on Proteus vulgaris [2] and in the experiment with Proteus vulgaris [3] was 8 throughout. In addition, the MIC with Pseudomonas aeruginosa was 16 µg/mL (≈ 56.3 µM); in the experiment on Klebsiella pneumoniae, above 128 µg/mL; with Proteus vulgaris [1], 16 µg/mL (≈ 56.3 µM); in the experiment on Salmonella, 64 µg/mL (≈ 225 µM); in the experiment with Staphylococcus aureus, 50 µg/mL (≈ 176 µM); in the experiment on Pasteurella sp., 2 µg/mL (≈ 7.03 µM). Further, the MIC in the experiment on Escherichia coli was found to be 0.5 µg/mL (≈ 1.76 µM).
As for `Fc1ccccc1COc1ccc2c(c1)CCc1nccn1-2`, the MIC worked out at 150 µg/mL (≈ 510 µM) with Staphylococcus aureus and 50 µg/mL (≈ 170 µM) with Escherichia coli.
For `Clc1ccc(COc2ccc3c(c2)CCc2nccn2-3)cc1` the same measures were 50 µg/mL (≈ 161 µM) and 50 µg/mL (≈ 161 µM).
The like results for `Fc1cccc(COc2ccc3c(c2)CCc2nccn2-3)c1` were, in that order, 150 µg/mL (≈ 510 µM) and 50 µg/mL (≈ 170 µM).
For `Clc1ccccc1COc1ccc2c(c1)CCc1nccn1-2` the same measures were 150 µg/mL (≈ 483 µM) and 100 µg/mL (≈ 322 µM).
Regarding `CCCCCCCCCOc1ccc2c(c1)CCc1nccn1-2`, the MIC in the experiment with Staphylococcus aureus and in the experiment with Escherichia coli was 50 µg/mL (≈ 160 µM) throughout.
